How the values were obtained:
3T3L1 cells = experiment: MTT assay for cytotoxicity testing; format: cell-based; details: 25 μM; 2, 4 and 6 days
Description: 12500 cells/mL were seeded in presence/absence of compound of Formula I in […] plate and at different intervals of time (2 days, 4 days, 6 days), 1/10th volume of 5 mg/ml MTT solution was added to it followed by incubation at 37° C. for 3 hours. The formed crystals were dissolved in DMSO and spectrometric estimation of colour intensity was done at 570 nm.
MTT assay was performed to check for any possible cellular toxicity effect of compound of Formula I, using 25 μM concentration of the compound on 3T3L1 cells upon incubation for varying lengths of time (2, 4 and 6 days). Comparison was done with cells that were left untreated or treated with DMSO as solvent control (FIG. 3).

[1] = system: histone butyrylation and acetylation in liver and adipose tissue; experiment: Histone modifications in liver and adipose tissue of high fat diet mice; format: in vivo
Description: Collected liver tissue samples were stored in 4% paraformaldehyde for 24 hours after which they were cryoprotected in 30% sucrose solution for two weeks. Cryosections were performed at 7 μm sections using Cryostat Leica CM1850 UV. For staining, the tissue sections were washed with PBS followed by antigen retrieval with 0.01 M citrate buffer (pH 6). The tissues were then permeabilised with 0.3% Triton X-100/PBS (PBST) and blocked with 2% serum followed by incubation with primary antibodies overnight at 4° C. The next day, secondary antibody incubation was carried out for one hour at room temperature followed by staining of the nuclei with Hoechst 33342 and mounting with 70% glycerol. Images were acquired by confocal microscopy. For quantitation, intensity of each modification specific staining was normalized with respect to the Hoechst staining intensity.
It was observed that H4K5 butyrylation in liver increased upon high fat diet consumption but was inhibited in presence of compound of Formula I (FIG. 10A). […] Acid extraction of histones was performed from the epididymal fat pads of mice using the same protocol as mentioned in example 7. It was observed that H4K5 butyrylation was reduced in the adipocytes of high fat diet fed mice treated with compound of Formula I compared to mice fed with high fat diet only (FIG. 10B).

[2] = system: genes associated with adipogenesis; experiment: RT-PCR of adipogenesis related genes in 3T3L1; format: cell-based; details: 3T3L1, RT-PCR
Description: Total RNA was isolated from the treated 3T3L1 cells by phenol-chloroform method. The isolated RNA samples were treated with 2 units/μL DNase I to remove any residual DNA followed by overnight ethanol precipitation at −80° C. RNA integrity was checked in 1% agarose gel. 2 μg RNA was used for cDNA synthesis using oligo dT primers. RT-PCR was done using primers of adipogenesis related genes followed by detection with SYBR Green.
RT-PCR analysis was performed to show downregulation of genes associated with adipogenesis by compound of Formula I (FIG. 5). Error bars denote mean+/−SD of three biological replicates, one-way ANOVA with Dunnett's multiple comparison; * P<0.05, ** P<0.01, *** P<0.001, ns: not significant.

[3] = Single dose toxicity study for maximum tolerated dose; format: in vivo
Description: The single dose toxicity study on compound X was conducted in accordance with Good Laboratory Practice Principles as published by the OECD in 1998, in accordance with the Drugs and Cosmetics Rule (New Drugs and Clinical trials, 2019/DCGI). Compound X (formulated in vehicle i.e. 0.5% sodium salt of carboxymethyl cellulose) was administered to Sprague Dawley rats once by oral route on the day of scheduled treatment. The three treatment groups were 250 mg, 500 mg, and 1000 mg/kg body weight, while vehicle control was administered to control group. The rat equivalent doses were calculated from the dosage used in mice experiments following FDA guidelines for drug administration. The doses finally administered were 10, 20 and 40 times the corresponding mice equivalent dose. Food, but not water, was removed thus letting the animals fast over-night prior to dosing. […] Animals were subsequently observed once daily for any signs of toxicity, mortality, or any other observations including conditions of skin, hair coat, eyes, mucous membrane, movement, activity, tremors, convulsions, salivation, diarrhea, posture, piloerection and lethargy. Food intake, water intake and body weight of animals was recorded weekly. Terminal sacrifice of surviving animals was performed after 14 days using CO2 euthanasia technique following which animals were necropsied. Animals were fasted over night before necropsy. Gross observations were recorded.

With COc1ccc(C(=O)C2=C3OC(C)(C)[C@@H](CC=C(C)C)C[C@@]34C[C@@H](CC=C(C)C)C(C)(C)[C@@](CC=C(C)C)(C2=O)C4=O)cc1OC [Compound X] the “toxic effect (MTT)” value (3T3L1 cells) was “No toxic effect”, the “H4K5 butyrylation in adipocytes” value ([1]; epididymal fat pads, immunoblot) was “reduced” and the “H4K5 butyrylation in liver” value ([1]; immunohistochemistry) was “inhibited”. For the same compound, the “H4K12 and H3K14 acetylation in liver” value ([1]; immunohistochemistry) was “not affected”, the “expression of genes associated with adipogenesis” value [2] was “downregulation” and the “gross morphological changes in organs” value ([3]; 250, 500, 1000 mg/kg single oral dose, necropsy) was “no gross morphological changes in any organ”. The “Average food intake, Final” value ([3]; Female, 250 mg/Kg bw) was 16.65 gram/day/animal, the “Average food intake, Initial” value ([3]; Female, 250 mg/Kg bw) was 20 gram/day/animal and the “Average food intake, Middle” value ([3]; Female, 250 mg/Kg bw) was 16.32 gram/day/animal. For the same compound, the “Average water intake, Final” value ([3]; Female, 250 mg/Kg bw) was 16.65 ml/day/animal, the “Average water intake, Initial” value ([3]; Female, 250 mg/Kg bw) was 20 ml/day/animal and the “Average water intake, Middle” value ([3]; Female, 250 mg/Kg bw) was 16.32 ml/day/animal. The “Body weight, Final” value ([3]; Female, 250 mg/Kg bw) was 176.35 gram, the “Body weight, Initial” value ([3]; Female, 250 mg/Kg bw) was 151.99 gram and the “Body weight, Mid” value ([3]; Female, 250 mg/Kg bw) was 174.54 gram. The “Average food intake, Final” value ([3]; Female, 500 mg/Kg bw) was 17.09 gram/day/animal, the “Average food intake, Initial” value ([3]; Female, 500 mg/Kg bw) was 18.22 gram/day/animal and the “Average food intake, Middle” value ([3]; Female, 500 mg/Kg bw) was 18.13 gram/day/animal. For the same compound, the “Average water intake, Final” value ([3]; Female, 500 mg/Kg bw) was 17.09 ml/day/animal, the “Average water intake, Initial” value ([3]; Female, 500 mg/Kg bw) was 18.22 ml/day/animal and the “Average water intake, Middle” value ([3]; Female, 500 mg/Kg bw) was 18.13 ml/day/animal. For the same compound, the “Body weight, Final” value ([3]; Female, 500 mg/Kg bw) was 175.8 gram, the “Body weight, Initial” value ([3]; Female, 500 mg/Kg bw) was 153.32 gram and the “Body weight, Mid” value ([3]; Female, 500 mg/Kg bw) was 176.55 gram. For the same compound, the “Average food intake, Final” value ([3]; Female, 1000 mg/Kg bw) was 16.97 gram/day/animal, the “Average food intake, Initial” value ([3]; Female, 1000 mg/Kg bw) was 18.17 gram/day/animal and the “Average food intake, Middle” value ([3]; Female, 1000 mg/Kg bw) was 17.82 gram/day/animal. The “Average water intake, Final” value ([3]; Female, 1000 mg/Kg bw) was 16.97 ml/day/animal, the “Average water intake, Initial” value ([3]; Female, 1000 mg/Kg bw) was 18.17 ml/day/animal and the “Average water intake, Middle” value ([3]; Female, 1000 mg/Kg bw) was 17.82 ml/day/animal. For the same compound, the “Body weight, Final” value ([3]; Female, 1000 mg/Kg bw) was 179.52 gram, the “Body weight, Initial” value ([3]; Female, 1000 mg/Kg bw) was 153.81 gram and the “Body weight, Mid” value ([3]; Female, 1000 mg/Kg bw) was 178.58 gram. The “Average food intake, Final” value ([3]; Male, 250 mg/Kg bw) was 22.62 gram/day/animal, the “Average food intake, Initial” value ([3]; Male, 250 mg/Kg bw) was 20.03 gram/day/animal and the “Average food intake, Middle” value ([3]; Male, 250 mg/Kg bw) was 20.79 gram/day/animal. For the same compound, the “Average water intake, Final” value ([3]; Male, 250 mg/Kg bw) was 22.62 ml/day/animal, the “Average water intake, Initial” value ([3]; Male, 250 mg/Kg bw) was 20.03 ml/day/animal and the “Average water intake, Middle” value ([3]; Male, 250 mg/Kg bw) was 20.79 ml/day/animal. For the same compound, the “Body weight, Final” value ([3]; Male, 250 mg/Kg bw) was 244.21 gram, the “Body weight, Initial” value ([3]; Male, 250 mg/Kg bw) was 171.94 gram and the “Body weight, Mid” value ([3]; Male, 250 mg/Kg bw) was 216.62 gram. For the same compound, the “Average food intake, Final” value ([3]; Male, 500 mg/Kg bw) was 23.29 gram/day/animal, the “Average food intake, Initial” value ([3]; Male, 500 mg/Kg bw) was 20.99 gram/day/animal and the “Average food intake, Middle” value ([3]; Male, 500 mg/Kg bw) was 21.14 gram/day/animal. For the same compound, the “Average water intake, Final” value ([3]; Male, 500 mg/Kg bw) was 23.29 ml/day/animal, the “Average water intake, Initial” value ([3]; Male, 500 mg/Kg bw) was 20.99 ml/day/animal and the “Average water intake, Middle” value ([3]; Male, 500 mg/Kg bw) was 21.14 ml/day/animal. The “Body weight, Final” value ([3]; Male, 500 mg/Kg bw) was 243.14 gram, the “Body weight, Initial” value ([3]; Male, 500 mg/Kg bw) was 176.3 gram and the “Body weight, Mid” value ([3]; Male, 500 mg/Kg bw) was 229.75 gram. For the same compound, the “Average food intake, Final” value ([3]; Male, 1000 mg/Kg bw) was 19.95 gram/day/animal, the “Average food intake, Initial” value ([3]; Male, 1000 mg/Kg bw) was 20.76 gram/day/animal and the “Average food intake, Middle” value ([3]; Male, 1000 mg/Kg bw) was 20.74 gram/day/animal. The “Average water intake, Final” value ([3]; Male, 1000 mg/Kg bw) was 19.95 ml/day/animal, the “Average water intake, Initial” value ([3]; Male, 1000 mg/Kg bw) was 20.76 ml/day/animal and the “Average water intake, Middle” value ([3]; Male, 1000 mg/Kg bw) was 20.74 ml/day/animal. The “Body weight, Final” value ([3]; Male, 1000 mg/Kg bw) was 226.19 gram, the “Body weight, Initial” value ([3]; Male, 1000 mg/Kg bw) was 176.24 gram and the “Body weight, Mid” value ([3]; Male, 1000 mg/Kg bw) was 217.65 gram. For the same compound, the “effect on food and water consumption” value ([3]; both gender, all three doses vs vehicle control) was “no significant treatment related effect”.

— patent US20240269106A1, “SMALL MOLECULE MODULATOR TARGETING A RARE HISTONE MODIFICATION REGULATING ADIPOGENESIS AND PHARMACEUTICAL FORMULATION THEREOF” (COUNCIL OF SCIENTIFIC AND INDUSTRIAL RESEARCH AN INDIAN …, priority 2021, published 2024)
